Test results reported in US5994334A, “Androgen synthesis inhibitors” (priority 1997, dated 1999).
“Also recorded” adds a separate entry of the source. Read-outs that look alike come from different tables or passages of the source.

How the values were obtained:
[1] = target: T1, Human Testicular 17α-Hydroxylase (Homo sapiens, UniProt P05093); assay: Inhibition of human testicular 17α-hydroxylase (pregnenolone substrate, testicular microsomes); type: biochemical; conditions: for inhibition at 0.4 µM: read-out: % Inhibition 17α-hydroxylase, [I] = 400 nM
T1 construct: incubating human testicular microsomes; from tissue; host or cells: human testis, microsomes
T1 sequence (P05093 1-508): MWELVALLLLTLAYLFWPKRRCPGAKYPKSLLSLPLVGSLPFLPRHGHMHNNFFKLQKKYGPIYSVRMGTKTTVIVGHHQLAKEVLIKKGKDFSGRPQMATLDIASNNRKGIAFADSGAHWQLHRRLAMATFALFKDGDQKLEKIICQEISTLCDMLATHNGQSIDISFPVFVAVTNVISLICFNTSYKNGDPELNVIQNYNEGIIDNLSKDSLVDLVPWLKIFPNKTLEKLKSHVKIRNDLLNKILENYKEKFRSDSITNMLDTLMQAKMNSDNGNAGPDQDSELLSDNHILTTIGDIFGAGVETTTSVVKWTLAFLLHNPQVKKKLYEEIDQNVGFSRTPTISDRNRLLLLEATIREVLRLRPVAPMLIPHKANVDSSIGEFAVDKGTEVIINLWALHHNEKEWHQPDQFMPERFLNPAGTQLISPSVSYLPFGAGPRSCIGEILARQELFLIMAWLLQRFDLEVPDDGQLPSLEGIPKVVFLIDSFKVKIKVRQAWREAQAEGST
Description: (§1) The conversion of radiolabeled pregnenolone to 17α-hydroxypregnenolone and DHEA by 17α-hydroxylase/C17,20 -lyase was measured by incubating human testicular microsomes with different concentration of test compounds. Reverse phase HPLC was used to separate and accurately quantify the amount of substrate and metabolites. The 17α-hydroxylase and C17,20 -lyase activities were calculated separately. The activity of 17α-hydroxylase was calculated from the conversion of pregnenolone to 17α-hydroxypregnenolone and DHEA and the activity of C17,20 -lyase was based on the conversion of pregnenolone to DHEA. Although 17α-hydroxypregnenolone is the substrate converted to DHEA by C17,20 -lyase, it has been reported that this 17α-hydroxy intermediate is not released from the enzyme binding site during conversion (Nakajin et al., 1981a,b). Also, there are species differences in substrate requirements. Pregnenolone is the natural substrate rather than progesterone for human testicular 17α-hydroxylase and C17,20 -lyase. Therefore, pregnenolone was used as substrate for measuring the activity of this enzyme complex.

[2] = target: T2, Human Testicular C17,20-lyase (Homo sapiens, UniProt P05093); assay: Inhibition of human testicular C17,20-lyase (pregnenolone substrate, testicular microsomes); type: biochemical; conditions: for inhibition at 0.1 µM: read-out: % Inhibition C17,20-lyase, [I] = 100 nM; for inhibition at 0.4 µM: read-out: % Inhibition C17,20-lyase, [I] = 400 nM
T2 construct: incubating human testicular microsomes; from tissue; host or cells: human testis, microsomes
T2 sequence (P05093 1-508): T1 sequence (P05093 1-508)
Description: as §1

[3] = target: T3, human 17α-hydroxylase/C17,20-lyase (Homo sapiens, UniProt P05093); assay: Inhibition of human testicular 17α-hydroxylase/C17,20-lyase (enzyme complex as a whole); type: biochemical; conditions: for times more potent than ketoconazole: vs ketoconazole
T3 construct: incubating human testicular microsomes; from tissue; host or cells: human testis, microsomes
T3 sequence (P05093 1-508): T1 sequence (P05093 1-508)
Description: as §1

[4] = target: T4, Human Prostatic 5α-Reductase (Homo sapiens, UniProt P31213); assay: Inhibition of human prostatic 5α-reductase (prostatic microsomes, [3H]testosterone); conditions: for inhibition at 0.01 µM: read-out: % Inhibition of 5α-reductase, [I] 10 nM; for inhibition at 0.1 µM: read-out: % Inhibition of 5α-reductase, [I] 100 nM
T4 sequence (P31213 1-254): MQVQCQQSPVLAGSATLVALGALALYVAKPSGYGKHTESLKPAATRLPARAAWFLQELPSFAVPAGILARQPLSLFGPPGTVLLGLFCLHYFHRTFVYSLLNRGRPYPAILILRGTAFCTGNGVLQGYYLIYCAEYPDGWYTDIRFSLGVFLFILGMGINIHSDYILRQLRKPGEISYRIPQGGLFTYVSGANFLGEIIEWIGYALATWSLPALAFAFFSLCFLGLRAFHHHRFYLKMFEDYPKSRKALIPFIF
Description: The 5α-reductase assay is performed by incubating human prostatic microsomes (approx. 0.6 mg protein in 0.5 ml phosphate buffer) with [7-^3 H]testosterone (10 mM. 6×10^5 dpm) with a NADPH generating system (NADP 0.65 mM; glucose-6-phosphate 7.1 mM; glucose-6-phosphate dehydrogenase 2.5 IU in 100 μl phosphate buffer) and candidate inhibitors at concentrations of 10 nM and 100 nM under oxygen for 30 min at 37° C. […] The steroids are extracted with ether and separated by chromatography on TLC (chloroform:ether 80:20). […] The steroids are scraped from the plate and radioactivity measured.

[5] = tested on: human prostatic tissue (BPH or prostate cancer); assay: Prostate tissue in histoculture, DNA synthesis ([3H]-thymidine uptake); conditions: inhibitor 1 μM; testosterone 1 μM; FIG. 1
Description: We recently developed a histoculture method to evaluate the growth inhibiting properties of the compounds on human prostatic tissue. […] The tissue samples were then incubated for 3 days in fresh medium/treatment containing 2 μCi/ml [^3 H]-thymidine. Tissue was then digested and DNA extracted. For each sample, [^3 H]-thymidine uptake was normalized to DNA content. […] This finding is consistent with the compound acting as an antiandrogen. None of the compounds produced an independent effect on DNA synthesis in the absence of added androgens.

[6] = tested on: LNCaP human prostatic cancer cell line; assay: Androgen-dependent growth of LNCaP cells
Description: The ability of various inhibitors to reverse the stimulatory effect of testosterone on the growth of the LNCaP human prostatic cancer cell line was tested by comparing cell number in wells treated for 9 days with either drug vehicle only (control), 0.1 nM testosterone only, or 0.1 nM testosterone with inhibitor at 0.3, 1, 2.5, or 5 μM.

[7] = Table 1, NI = no inhibition, read-out: IC50 17α-OHase
[8] = Table 1, NI = no inhibition, CI = complete inhibition, read-out: IC50 C17,20 lyase
[9] = Table 3, first figure of 17α-hydroxylase/lyase pair, read-out: IC50 17α-hydroxylase
[10] = first figure of pair, read-out: IC50 17α-hydroxylase
[11] = second figure of pair, read-out: IC50 C17,20-lyase
[12] = IC50 5α-reductase, Table 3, NI = no inhibition
[13] = read-out: IC50 5α-reductase, Table 2

| SMILES | IC50 [1, 7] | IC50 [2, 8] | inhibition of 17α-hydroxylase/C17,20-lyase (in words) ([3]; NI = no inhibition) | inhibition at 0.1 µM [4] | inhibition of 5α-reductase (in words) ([4]; NI = no inhibition) | IC50 ([4]; IC50 5α-reductase, Table 2) | IC50 ([4]; IC50 5α-reductase) | IC50 [4, 12] | further results |
| --- | --- | --- | --- | --- | --- | --- | --- | --- | --- |
| C[C@]12CC[C@H]3[C@@H](CC=C4C[C@@H](O)CC[C@@]43C)[C@@H]1CC[C@@H]2[C@@]1(C)CO1 [Compound I-8] | 0.11 µM | 0.14 µM | significant inhibition | 16.3% |  |  |  |  | inhibition at 0.01 µM [4]: 11.8% |
| C[C@@H](O)[C@H]1CC[C@H]2[C@@H]3CC=C4C[C@@H](O)CC[C@]4(C)[C@H]3CC[C@]12C [Compound I-20] |  |  | potent inhibition |  | neither showed activity against 5α-reductase |  |  |  | IC50 ([1]; IC50 17α-OHase): 0.18 µM; IC50 ([2]; IC50 C17,20 lyase): 0.19 µM |
| CN(C=O)[C@H]1CC[C@H]2[C@@H]3CCC4=CC(=O)CC[C@]4(C)[C@H]3CC[C@]12C [Compound I-40] | 0.76 µM | 0.68 µM |  |  |  | 0.15 µM |  |  | fold lower inhibition than I-16 ([3]; vs I-16): approximately 4 fold |
| C[C@]12CC[C@H]3[C@@H](CCC4=CC(=O)CC[C@@]43C)[C@@H]1CC[C@@H]2c1c[nH]cn1 [Compound I-41, 17β-(4'-imidazolyl)-androst-4-en-3-one] | 0.059 µM | 0.005 µM |  |  |  |  | 0.122 µM | 0.122 µM | IC50 [1, 9]: 0.0594 µM; IC50 [1, 10]: 0.059 µM; IC50 ([2]; Table 3, second figure of pair, CI = complete inhibition, read-out: IC50 lyase): 0.00561 µM; IC50 [2, 11]: 0.005 µM; reversal of testosterone-stimulated DNA synthesis (in words), 1 μM [5]: without effect |
| CC(=NO)[C@H]1CC[C@H]2[C@@H]3CCC4=CC(=NO)CC[C@]4(C)[C@H]3CC[C@]12C [Compound I-42] | 0.21 µM | 0.22 µM | decreased activity |  | decreased activity |  |  |  | IC50 [4, 13]: 2.06 µM |
| CC(=NO)[C@H]1CC[C@H]2[C@@H]3CCC4=CC(=NO)CC[C@]4(C)[C@H]3CC[C@]12C [Compound I-43] | 0.09 µM | 0.07 µM | decreased activity |  | decreased activity |  |  |  | reversal of testosterone-stimulated DNA synthesis (in words), 1 μM [5]: without effect; IC50 [4, 13]: 1.27 µM |
| CC(=NO)C1=CC[C@H]2[C@@H]3CCC4=CC(=O)CC[C@]4(C)[C@H]3CC[C@]12C [Compound L-2, 16-dehydroprogesterone-20-oxime] | 0.0087 µM |  | potent inhibitors of both enzymes | 45.5% | potent inhibition of 5α-reductase; also recorded: potent inhibitor of human 5α-reductase | 0.052 µM | 0.0525 µM | 0.0525 µM | IC50 [1, 9]: 0.00865 µM; IC50 [1, 10]: 0.006 µM; IC50 [2, 11]: 0.005 µM; stronger activity than I-5 against 17α-hydroxylase/C17,20-lyase ([3]; vs I-5): twofold stronger activity; times more potent than ketoconazole [3]: 10-50 times; times less potent than finasteride (5α-reductase) ([4]; vs finasteride): 4-6 times |
| C[C@]12CCC(=O)C=C1CC[C@@H]1[C@@H]2CC[C@]2(C)C(c3c[nH]cn3)=CC[C@@H]12 [Compound L-6, 17β-(4'-imidazolyl)-androsta-4,16-dien-3-one] | 0.016 µM |  | potent inhibitors | 25.2% | potent inhibitors; also recorded: potent inhibition of 5α-reductase | 0.522 µM | 0.522 µM | 0.522 µM | IC50 [1, 9]: 0.0156 µM; IC50 [1, 10]: 0.016 µM; IC50 [2, 11]: 0.002 µM; times more potent than ketoconazole [3]: 10-50 times |
| C[C@@H](O)C1=CC[C@H]2[C@@H]3CC=C4C[C@@H](O)CC[C@]4(C)[C@H]3CC[C@]12C [Compound L-8] |  |  |  |  |  |  |  |  | inhibition at 0.4 µM [1]: 82.7%; inhibition at 0.1 µM [2]: 66.2%; inhibition at 0.4 µM [2]: 83.3%; IC50 ([3]; read-out: IC50 17α-hydroxylase/lyase (single entry), one value for 17α-hydroxylase/lyase, NI = no inhibition): 0.1 µM; inhibition at 0.01 µM [4]: 37.1% |
| C[C@@H](O)C1=CC[C@H]2[C@@H]3CCC4=CC(=O)CC[C@]4(C)[C@H]3CC[C@]12C [Compound L-10, 20β-hydroxy-pregna-4,16-dien-3-one] |  |  |  | 90.7% | almost equipotent with finasteride | 0.021 µM | 0.02 µM | 0.021 µM | inhibition at 0.1 µM ([1]; read-out: % Inhibition 17α-hydroxylase, [I] = 100 nM): 14.9%; inhibition at 0.4 µM [1]: 8.19%; inhibition at 0.1 µM [2]: 2.28%; inhibition at 0.4 µM [2]: 8.48%; reversal of DHT-stimulated LNCaP growth (in words) ([6]; 0.03 nM DHT): not dose-dependent; reversal of testosterone-stimulated LNCaP growth (in words) ([6]; 0.1 nM testosterone, inhibitor 0.3-5 μM, 9 days): dose-dependent reversal; inhibition at 0.01 µM [4]: 97% |
| CC(=O)C1=CC[C@H]2[C@@H]3CCC4=CC(=O)CC[C@]4(C)[C@H]3CC[C@]12C [Compound L-13, 16-dehydroprogesterone] |  |  | potent inhibitors of both enzymes | 87.8% | potent inhibition of 5α-reductase; also recorded: almost equipotent with finasteride | 0.022 µM | 0.022 µM | 0.0218 µM | IC50 ([1]; IC50 17α-OHase): 0.073 µM; IC50 ([1]; IC50 17α-hydroxylase): 0.0727 µM; IC50 ([1]; IC50 17α-hydroxylase (text)): 0.073 µM; IC50 ([2]; IC50 C17,20-lyase): 0.024 µM; IC50 ([2]; IC50 C17,20 lyase): 0.024 µM; IC50 ([2]; IC50 lyase): 0.0237 µM; times more potent than ketoconazole [3]: 10-50 times; inhibition at 0.4 µM ([4]; read-out: % Inhibition of 5α-reductase, [I] 400 nM): 96.4% |
